Experimental findings from paper PMC2603313, “Direct Inhibition of GSK3β by the Phosphorylated Cytoplasmic Domain of LRP6 in Wnt/β-Catenin Signaling” (PLoS ONE, 2008) are described below.

One test deals with Wnt/β-catenin signaling. Nature of the test: TOP-flash luciferase assay in 293 cells. The note with it: 24 h after transfection, 4 independent experiments, p<0.01 vs empty vector and vs miniCLMT. Type of test: cell-based. The text has this:
(§1) Figure 1 LRP6 constructs and their cytoplasmic overexpression in cell. (A) Schematic representation of the full-length LRP6 and amino acid sequences of LRP6 intracellular fragments used in this study. The Ser/Thr rich cluster and PPPSPxS motif are underlined in each sequence. Phosphorylated residues are highlighted. (B) Cytosolic overexpression of the LRP6 constructs. A549 cells in which control (empty vector, EV, encoding only GFP), miniCL and miniCLMT were transfected as GFP fusion proteins. Control, miniCL and miniCLMT were detected through the green fluorescence from GFP. β-Catenin was detected using an anti-β-catenin antibody, and the nuclei were detected by DAPI staining. […] Endogenous β-catenin was detected by an anti-β-catenin antibody. p-GS indicates the level of the phosphorylated GS by GSK3β, detected by anti-glycogen synthase (Ser641) antibody. p-S9-GSK3β indicates the phosphorylated Ser9 of GSK3β, and was detected by anti-phospho GSK3β (Ser9) antibody. Levels of transfected proteins were detected using monoclonal GFP antibody, indicated by GFP. Total cellular levels of GS and GSK3β were measured by anti-GS antibody and anti-GSK3β antibody, which are indicated by t-GS and t-GSK3β, respectively. […] (D) Activation of Wnt/β-catenin signaling, which was measured by the Top-flash luciferase activity. […] The luciferase activities were measured after 24 h of the transfection. […]

Test [1] has as its system HepG2 cells. Nature of the test: Western blot of β-catenin in transfected HepG2 cells. It is filed as cell-based. The conditions noted are these: GFP fusion, 24 h. How it is done: (§2) pEGFP-miniCL and pEGFP-miniCLMT vectors were transfected into A549 cells and HepG2 cells using jetpei according to the manufacturer's protocol (Polyplus transfection). In brief, 2 µg of DNA and jetpei mixtures were added to A549 cells and HepG2 cell and incubated for 3 h under serum-free conditions, and then equal volumes of DMEM containing 20% serum were added. After 24 h incubation, cells were harvested using RIPA (containing protease cocktail). Subsequently, 20 µg of protein lysates were applied to SDS-PAGE. After transferring the proteins to a PVDF membrane, samples were incubated with the appropriate antibodies, according to standard western blot protocol.
Supplementary file pone.0004046.s002.tif: Figure S2 Western blotting analysis from the transfected HepG2 cells. Labels at the left side of blots indicate the antibody used for detection of the corresponding protein. The endogenous β-catenin level was detected by an anti-β-catenin antibody. p-GS indicates the level of the phosphorylated GS by GSK3β, detected by anti-glycogen synthase (Ser641) antibody. p-S9-GSK3β indicates the phosphorylated Ser9 of GSK3β, and was detected by anti-phospho GSK3β (Ser9) antibody. Levels of transfected proteins were detected using monoclonal GFP antibody, indicated by GFP. Pan-Ras is shown as a loading control. (0.05 MB TIF) Click here for additional data file.

For test [2], the system named is A549 cells. The experiment in a line: β-Catenin immunofluorescence in transfected A549 cells. The conditions noted are these: GFP fusion. It is filed as cell-based.
Text: as §1

Test [3] relates to A549 cells. The experiment in a line: Western blot of β-catenin in transfected A549 cells. It is filed as cell-based. The conditions noted are these: GFP fusion, 24 h.
Text: as §1

Test [4] deals with HepG2 cells. Nature of the test: β-Catenin immunofluorescence in transfected HepG2 cells. Type of test: cell-based. The note with it: GFP fusion. As to the method:
as §2
Transfected cells were fixed with 100% methanol for 20 min at −20°C. After washing with PBS and subsequent blocking with blocking buffer (PBS+0.05% BSA), fixed cells were incubated with anti-β-catenin antibody for 2 h at room temperature. […] After washing with PBS, expression of β-catenin, GFP, and DAPI were analyzed using fluorescence microscopy.
Supplementary file pone.0004046.s001.tif: Figure S1 Cytosolic overexpression of the LRP6 constructs in HepG2 cells. […] Control, miniCL and miniCLMT were detected through the green fluorescence from GFP. β-Catenin was detected using an anti-β-catenin antibody, and the nuclei were detected by DAPI staining. […]

Test [5] has as its system GSK3β. Nature of the test: Western blot of GSK3β phosphorylated at Ser9 in transfected A549 cells. Type of test: cell-based. The note with it: GFP fusion.
Text: as §1

For test [6], the target named is T1, GSK3β (Mus musculus, UniProt Q9WV60).
T1 construct: The catalytic domains of mouse GSK3β (residues 27–393) and CK1ε (residues 1–319) were expressed and purified; made in house
Nature of the test: Far western binding of GSK3β to miniCL in presence of Axin GBD. The conditions noted are these: phosphorylated GST-miniCL; GSK3β 0.1 µg/ml; GST-Axin GBD 0, 10 µM; three independent experiments. As to the method: Figure 4 Phosphorylation-dependent binding of the LRP6 intracellular region to GSK3β in the absence and presence of Axin. (A) GST (Lane 1), GST-fused miniCL (Lane 3; GST-miniCL), GST-fused miniCLMT (Lane 5; GST-miniCLMT), and their phosphorylated forms (Lanes 2, 4, 6; indicated by “phos”) were loaded onto an SDS-polyacrylamide gel, and then transferred to PVDF membrane (Left top). […] The phosphorylated protein bands show an upshifted mobility on the gel. The PVDF membrane was incubated with 1 µg/ml of GSK3β to allow GSK3β to bind to the proteins in the membrane. The bound GSK3β was visualized on the transferred proteins by western blotting using an anti-GSK3β antibody (Left bottom), and the GSK3β protein used to obtain the phosphorylated forms of each protein is indicated by GSK3β*. The band intensities of bound GSK3β were measured from the three independent experiments (Right). […] The phosphorylated GST-fused miniCL was transferred to PVDF membrane, and the membrane was incubated with GSK3β (0.1 µg/ml) and GST-fused Axin GBD domain protein (0, 10 µM). Error bars indicate the standard deviation from three independent experiments. […]
GST-fusion proteins (GST-miniCL, GST-miniCLMT, GST-PPPSPxS, GST-PPPAPxS) were subjected to SDS-PAGE and transferred to a PVDF membrane. […] The binding of GSK3β was detected with rabbit anti-GSK3β antibody and secondary HRP-conjugated goat anti-rabbit IgG (Pierce).

For another test, the system named is glycogen synthase. The experiment in a line: Western blot of phosphorylated glycogen synthase (Ser641) in transfected A549 cells. Type of test: cell-based. The note with it: GFP fusion, anti-glycogen synthase (Ser641).
Text: as §1

Another test relates to LRP6 miniCL. The experiment in a line: Far western binding of Axin fragment to LRP6 miniCL with GSK3β. More on the design: species or system human. The note with it: GST-miniCL 15 µg on PVDF; GSK3β 2 µg/ml and/or His-Axin 12 µg/ml. As to the method:
Figure 4 Phosphorylation-dependent binding of the LRP6 intracellular region to GSK3β in the absence and presence of Axin. (A) GST (Lane 1), GST-fused miniCL (Lane 3; GST-miniCL), GST-fused miniCLMT (Lane 5; GST-miniCLMT), and their phosphorylated forms (Lanes 2, 4, 6; indicated by “phos”) were loaded onto an SDS-polyacrylamide gel, and then transferred to PVDF membrane (Left top). […] The phosphorylated protein bands show an upshifted mobility on the gel. The PVDF membrane was incubated with 1 µg/ml of GSK3β to allow GSK3β to bind to the proteins in the membrane. The bound GSK3β was visualized on the transferred proteins by western blotting using an anti-GSK3β antibody (Left bottom), and the GSK3β protein used to obtain the phosphorylated forms of each protein is indicated by GSK3β*. The band intensities of bound GSK3β were measured from the three independent experiments (Right). […] The phosphorylated GST-fused miniCL was transferred to PVDF membrane, and the membrane was incubated with GSK3β (0.1 µg/ml) and GST-fused Axin GBD domain protein (0, 10 µM). Error bars indicate the standard deviation from three independent experiments. (C) GSK3β mediates the binding of an Axin fragment to LRP6 miniCL region. […]

Entries after “also recorded” stand apart in the source; their conditions may differ. Ends that are not written are not given here.

T1 sequence (Q9WV60 27-393): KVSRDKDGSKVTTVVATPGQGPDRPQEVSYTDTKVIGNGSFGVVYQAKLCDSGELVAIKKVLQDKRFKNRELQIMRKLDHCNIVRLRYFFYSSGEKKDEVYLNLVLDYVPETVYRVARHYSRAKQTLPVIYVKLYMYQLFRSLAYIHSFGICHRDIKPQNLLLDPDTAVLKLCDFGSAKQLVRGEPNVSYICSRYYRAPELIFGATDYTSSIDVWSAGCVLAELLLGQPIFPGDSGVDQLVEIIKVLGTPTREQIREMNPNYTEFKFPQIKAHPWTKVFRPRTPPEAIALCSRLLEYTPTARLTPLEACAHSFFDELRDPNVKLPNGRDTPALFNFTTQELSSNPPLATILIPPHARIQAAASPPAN

Regarding “miniCL: LRP6 miniCL (residues 1470–1510 of human LRP6), GFP fusion in cells (SSSSSSTKGTYFPAILNPPPSPATERSHYTMEFGYSSNSPS; not fully specified; also: GFP fusion in cells (GFP left off))”, the TOP-flash luciferase activity result in the test with Wnt/β-catenin signaling is “significantly induced TOP-flash activity; also recorded: significantly activated Wnt/β-catenin signaling”. The “β-catenin level (western blot)” value with HepG2 cells [1] and in the test on A549 cells [3] was “increased level of β-catenin” each time. In addition, the “Total cellular β-catenin and nuclear translocation” value with A549 cells [2] is “dramatically increased the total amount of cellular β-catenin and promoted the translocation of β-catenin into the nucleus”; in the test on HepG2 cells [4], “dramatically increased the total amount of cellular β-catenin and promoted the translocation of β-catenin into the nucleus”. Also, the “Phosphorylation of Ser9 in GSK3β” value in the test with GSK3β [5] is given as “without the induction of phosphorylation of Ser9 in GSK3β”. Moreover, the “Effect of Axin GBD on GSK3β binding to miniCL” value with GSK3β [6] was “does not affect the binding of GSK3β; also recorded: not affected by the presence of Axin”. In addition, the “Phosphorylation of glycogen synthase (p-GS)” value in the test on glycogen synthase is given as “suppressed phosphorylation of glycogen synthase”.

B1: Axin fragment: His-tagged Axin fragment (residues 512–650) including the GBD and the β-catenin binding domain (protein, UniProt O35625 512-650, looked up, fragment)
chain: GKHVPKLGLKLDTAGLHHHRHVHHHVHHNSARPKEQMEAEVARRVQSSFSWGPETHGHAKPRSYSENAGTTLSAGDLAFGGKTSAPSKRNTKKAESGKNANAEVPSTTEDAEKNQKIMQWIIEGEKEISRHRKAGHGSS
modifications: His tag
For the molecule B1, in the test on LRP6 miniCL, the “Binding to LRP6 miniCL” value is “bound to LRP6 miniCL only in the presence of GSK3β; also recorded: bound to the LRP6 miniCL fragment only when GSK3β was co-incubated”.
